Assay results taken from patent publication US9724312B2, “Agent for the prevention, improvement or treatment of retinal disease” (ROHTO PHARMACEUTICAL CO., LTD., priority 2012, dated 2017).

System: IL-8 production by TNF-α in ARPE-19
Assay: Inhibitory effect on IL-8 production by TNF-α from retinal pigment epithelial cells
Format: cell-based, human
Conditions: all-trans form content 50 μM, 16 h, then TNF-α 4 h, FIG. 5, n=3
Excerpt: Age-related macular degeneration is known to involve the accumulation of drusen under the retinal pigment epithelium. Drusen attract macrophages and macrophages secrete TNF-α. TNF-α acts on the retinal pigment epithelium and its peripheral tissue, and the cells subsequently produce a variety of cytokines and cause inflammation (Mol Vis. 2008 14: 2292-303). Atypical cytokine that is involved in neutrophil migration and spreads inflammation is interleukin-8 (IL-8). In this experiment, the inhibitory effect of GGA on IL-8 production by TNF-α was examined using a human-derived retinal pigment epithelial cell line, ARPE-19. […]
After 4 hours of incubation, 150 μL of the cell culture supernatant was collected and stored at −80° C. […] Then, 100 μL of an equivalent mixture of a cell viability detection reagent Cell Titer-Glo and PBS was added to each well and the luminescence produced by the reaction with ATP in living cells was measured with a luminometer. From the measured luminescence, the cell viability was calculated by the following formula. Cell viability(%)=100×[(luminescence of GGA-treated group)/(luminescence of base-treated group)]
The stored cell culture supernatant was allowed to warm to room temperature, and the IL-8 concentration was quantified with Human CXCL8/IL-8 Quantikine ELISA Kit (R&D Systems). […]

## CC(=O)CC/C=C(\C)CC/C=C(\C)CC/C=C(\C)CCC=C(C)C [all-trans form, (5E,9E,13E)-6,10,14,18-tetramethyl-5,9,13,17-nonadecatetrae n-2-one]
  inhibitory effect on IL-8 production compared with GGA 6:4: significant inhibitory effect on IL-8 production
